These results are taken from patent publication US8236820B2, “Anti-inflammatory compounds and uses thereof” (priority 2007, dated 2012).

Data set [1] deals with SW480. Kind of data set: Cell viability (MTT) assay, 24-h IC50, SW480. Format: cell-based, human. Conditions: Homo sapiens, SW480, 24 h, read-out: 24-h IC50.
The subject of data set [2] is MDA-MB 231 human breast cancer cells. Nature of the data set: Cell proliferation assay (BrdU incorporation) in MDA-MB231. Format: cell-based. Conditions: MDA-MB231, each compound at its IC50 concentration. From the text:
(§1) Cell proliferation assay: To determine cell proliferation, we measured the incorporation of 5-bromo-2′-deoxyuridine (BrdU) into newly synthesized cellular DNA, following the manufacture's instructions (BD Biosciences, San Jose, Calif.).
(§2) As summarized in Table 2 below, in MDA-MB231 cells, all six compounds, each used at its IC50 concentration, a) inhibited cell proliferation between 6% and 50% compared to controls; b) induced both early and late apoptosis, as well as necrosis; and c) inhibited the G1 to S cell cycle phase transition. In this Table, the values for proliferation are the percentage of the corresponding control values. Those for apoptosis and necrosis refer to the percentage of cells in each category with respect to the entire cell population, and are to be compared to the control (vehicle only-treated) cells (uppermost row).
Background: Uptake of a labelled nucleoside into DNA is a usual measure of proliferation.

Data set [3] concerns APC^Min/+ mice. Nature of the data set: APC Min/+ mice study of intestinal tumors. Conditions: 50 mg/kg/day gavage, 4 weeks. Format: in vivo. From the text: APC^Min/+ mice study: Min mice have a truncating mutation in the Apc gene that predisposes them to the development of gastrointestinal tumors in the small intestine and colon (Lipkin M, Yang K, Edelmann W, et al. Preclinical mouse models for cancer chemoprevention studies. Ann N Y Acad Sci 1999; 889:14-9.). In many important ways, this model system represents a useful (and extensively utilized) experimental system that recapitulates the relevant steps of colon carcinogenesis.
Eleven week-old male C57BL/6J APC^Min/+ mice divided into […] groups of 10 mice/group were treated for 4 weeks via gavage administration as follows: group 1 was treated with vehicle (corn oil); and group 2 was treated with phospho-sulindac I 50 mg/kg/day.

For data set [4], the system named is MDA-MB 231 human breast cancer cells. Nature of the data set: Annexin V and propidium iodide staining in MDA-MB231. Conditions: MDA-MB231, compound at its IC50, 24 h. It counts as cell-based. The method, then:
(§3) Annexin V and propidium iodide (PI) staining: Cells were seeded at a density of 1×10^5 cells/well and treated for 24 h with various concentrations of each compound or equivalent volumes of DMSO. Briefly, after incubation with the test compounds, cells were trypsinized and stained with Annexin V-FITC (Invitrogen) and PI (0.5 μg/ml). Following incubation at room temperature for 15 min in the dark, annexin V-FITC and PI fluorescence intensities were analyzed by FACScaliber (BD Bioscience). Annexin V (+)/PI (−) cells are in early apoptosis, annexin V (+)/PI (+) cells are in late apoptosis (secondary necrosis), and annexin V (−)/ PI (+) cells are necrotic cells.
as §2

In data set [5] the test system is SW480 and HT-29 human colon cancer cells. Nature of the data set: Cell kinetics of colon cancer cells treated with phospho-sulindac I. It counts as cell-based. The method, then: as §1, §3
Determination of cell cycle phase distribution (PI incorporation assay): Cells were seeded in culture plates and treated for 24 h with various concentrations of each compound or equivalent volumes of DMSO. After treatment, cells were trypsinized and fixed in 70% ethanol for 1 h on ice, stained with PI (50 μg/ml) and RNase A (4 U/ml) for 30 min and subjected to flow cytometric analysis for the determination of their distribution in the cell cycle phases.

The subject of data set [6] is Salmonella typhimurium. Nature of the data set: Ames mutagenicity assay (reverse mutations). Format: cell-based. Conditions: two strains, presence and absence of S9 activation. As to the method:
We assessed the safety of phospho-sulindac I by examining its genotoxicity by the Ames test and its gastrointestinal and other toxicity by performing a toxicological study in mice.
The mutagenic potential of phospho-sulindac I was evaluated by measuring its ability to induce reverse mutations at selected loci of two strains of Salmonella typhimurium in the presence and absence of S9 activation.

Data set [7] concerns MIA-PaCa-2. Nature of the data set: Cell viability (MTT) assay, 24-h IC50, MIA-PaCa-2. It counts as cell-based, human. Conditions: Homo sapiens, MIA PaCa-2, 24 h, read-out: 24-h IC50.
Data set [8] has as its system colon cancer cells. Nature of the data set: Apoptosis (annexin V/PI), DFMO and phospho-sulindac I, 48 h. Format: cell-based, human. Conditions: 48 h of incubation; concentrations below IC50s. The method, then: A—Left panel: Cell viability was determined in HT-29 (full bars) and SW-480 (empty bars) cells after 48 h of incubation with 5 mM DFMO, 40 μM phospho-sulindac (P-S) or simultaneous combination of DFMO and P-S. Data are expressed as percentage of control cells (cells incubated only with DMSO). […] Right panel: In this isobologram the additivity line connects the IC50 value of each compound used alone. A and B represent two different dose pairs of each compound (their respective concentrations are shown in parentheses). The location of both A and B below the additivity line signifies synergy. […] DNA content was determined from propidium iodide (PI) fluorescence. C—Apoptosis and necrosis were determined by combined staining with annexin V and PI and determining fluorescence intensity. The percentages of apoptotic cells were determined using the dual staining with annexin V and propidium iodide and are indicated in each quadrant: left bottom quadrant, viable cells (annexin V-negative/PI-negative); right bottom quadrant, early apoptotic cells (annexin V-positive/PI-negative); right upper quadrant, late apoptotic cells (annexin V-positive/PI-positive); left upper quadrant, necrotic cells (annexin V-negative, PI-positive). […]

[9] abbreviates: 24 h at its 24-h IC50, vs untreated controls.

pIC50: −log10 of the molar value.

Take `CCOP(=O)(OCC)OCCCCOC(=O)CC1=C(C)/C(=C/c2ccc([S+](C)[O-])cc2)c2ccc(F)cc21` (centres unmarked) [Phospho-sulindac I]: the pIC50 in data set [1] is 4.01. For the same compound, the “Proliferation (% control)” value in data set [2] was determined as 52 % control. In addition, the “signs of toxicity in Min mice” value in data set [3] is reported as “without any overt signs of toxicity”. Besides, the “decreased the number of tumors in the small intestine” value in data set [3] (vs vehicle, p<0.002) is reported as 57.2%. For the same compound, in data set [3] (vs vehicle, p<0.02), the “reduction of tumors in the colon” value worked out at 61.8%. Moreover, the “number of colon tumors” value in data set [3] (vehicle 1.6±0.8) is reported as 0.6±0.5. In addition, in data set [3] (vehicle 33.6±8.7), the “number of intestinal tumors” value amounted to 19.4±12.0. For the same compound, the “Necrosis (%)” value in data set [4] (% of entire cell population (control 0.6)) was determined as 1.1%. Also, the “Early apoptosis (%)” value in data set [4] (% of entire cell population (control 1.4)) was 1.7%. For the same compound, in data set [4] (% of entire cell population (control 2.0)), the “Late apoptosis (%)” value is on record as 4.7%. Moreover, the “effect on G1 to S cell cycle phase transition” value in data set [5] (24 h at its 24-h IC50) was “blocked the transition form the G1 to the S cell cycle phase”. In data set [5] (setting [9]), the “induced apoptosis (early and late subtypes combined)” value is on record as 201%; the induced necrosis was 1350%; the inhibited cell proliferation is reported as 72%. Also, in data set [5] (24 h at its 24-h IC50, controls 0.2%), the “necrosis in treated cells” value stood at 2.9%. Moreover, the “apoptosis (early and late combined) in treated cells” value in data set [5] (24 h at its 24-h IC50, controls 6.6%) worked out at 20%. In addition, the “cell proliferation in treated cells” value in data set [5] (24 h at its 24-h IC50, controls 43%) came out at 12%. Moreover, the “genotoxicity (mutagenic potential)” value in data set [6] is “negative for genotoxicity”. Also, the pIC50 in data set [7] is 4.06. In data set [8], the “percentage of apoptotic cells” value is on record as 16.5%.

The term pIC50 denotes −log10 of the IC50, conventionally taken in molar units.
